Results from patent publication US6355799B1, “Substituted benzene compounds, process for their preparation, and herbicidal and defoliant compositions containing them” (ISK Americas Incorporated, priority 1997, dated 2002).

How the values were obtained:
Format in all cases: in vivo
[1] = system: redroot pigweed (Amaranthus retroflexus, AMARE); experiment: Pre-emerge test, greenhouse herbicide activity screening; conditions: rated 14 days after application, 0 = no damage, 100 = complete death
How it was run: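 Plants grown in 10 cm pots of sandy loam mix received acetone-dissolved compounds through a moving flat-fan nozzle. Doses ranged from 15 to 1000 g ai/ha. Pre-emerge pots were seeded one day earlier, post-emerge pots 8–21 days earlier. Fourteen days on, each pot was graded 0–100 for damage.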

[2] = system: barnyardgrass (Echinochloa crus-galli, ECHCG); experiment: as above; conditions: rated 14 days after application, 0 = no damage, 100 = complete death
How it was run: (§1)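 Herbicidal damage is scored 0 (none) to 100 (complete plant death) two weeks after a simulated field spray. Rates span 15–1000 g ai/ha, delivered in acetone at 187 l/ha. For post-emergence treatments, plants have 2–3 leaves and the spray carries 0.25% v/v non-ionic surfactant.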

[3] = system: green foxtail (Setaria viridis, SETVI); experiment: as above; conditions: rated 14 days after application, 0 = no damage, 100 = complete death
How it was run: as §1

[4] = system: ivyleaf morningglory (Ipomoea hederacea, IPOHE); experiment: as above; conditions: rated 14 days after application, 0 = no damage, 100 = complete death
How it was run: as §1

[5] = system: johnsongrass (Sorghum halepense, SORHA); experiment: as above; conditions: rated 14 days after application, 0 = no damage, 100 = complete death
How it was run: as §1

[6] = system: lambsquarters (Chenopodium album, CHEAL); experiment: as above; conditions: rated 14 days after application, 0 = no damage, 100 = complete death
How it was run: as §1

[7] = system: large crabgrass (Digitaria sanguinalis, DIGSA); experiment: as above; conditions: rated 14 days after application, 0 = no damage, 100 = complete death
How it was run: as §1

[8] = system: sicklepod (Cassia obtusifolia, CASOB); experiment: as above; conditions: rated 14 days after application, 0 = no damage, 100 = complete death
How it was run: as §1

[9] = system: velvetleaf (Abutilon theophrasti, ABUTH); experiment: as above; conditions: rated 14 days after application, 0 = no damage, 100 = complete death
How it was run: as §1

[10] = system: field corn (Zea mays L., var. Dekalb 535, CORN); experiment: Pre-emerge test, crop safety; conditions: rated 14 days after application, 0 = no damage, 100 = complete death
How it was run: (§2)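 Visual ratings on a 0-100 scale (0 no damage, 100 all plants dead) were taken at 14 days after treatment. Rates of 15-1000 g ai/ha in acetone, 187 l/ha, were sprayed onto soil one day after planting (pre-emerge) or onto 2-3 leaf plants with 0.25% v/v surfactant (post-emerge).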

[11] = system: upland rice (Oryza sp., var. Tebonnet, RICE); experiment: Pre-emerge test, crop safety; conditions: rated 14 days after application, 0 = no damage, 100 = complete death
How it was run: as §2

[12] = system: barnyardgrass (Echinochloa crus-galli, ECHCG); experiment: Post-emerge test, greenhouse herbicide activity screening; conditions: phytotoxicity rating 0-100 (0 no damage, 100 complete death), 14 days after application
How it was run: (§3)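 Each test used a mechanized track sprayer delivering 187 l/ha of acetone solution at 15–1000 g ai/ha. Post-emerge foliage at 2–3 leaves was treated with added 0.25% v/v non-ionic surfactant and bottom-watered only. Injury was assessed on day 14, where 100 means total kill.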

[13] = system: green foxtail (Setaria viridis, SETVI); experiment: as above; conditions: phytotoxicity rating 0-100 (0 no damage, 100 complete death), 14 days after application
How it was run: as §3

[14] = system: ivyleaf morningglory (Ipomoea hederacea, IPOHE); experiment: as above; conditions: phytotoxicity rating 0-100 (0 no damage, 100 complete death), 14 days after application
How it was run: as §3

[15] = system: johnsongrass (Sorghum halepense, SORHA); experiment: as above; conditions: phytotoxicity rating 0-100 (0 no damage, 100 complete death), 14 days after application
How it was run: as §3

[16] = system: lambsquarters (Chenopodium album, CHEAL); experiment: as above; conditions: phytotoxicity rating 0-100 (0 no damage, 100 complete death), 14 days after application
How it was run: as §3

[17] = system: large crabgrass (Digitaria sanguinalis, DIGSA); experiment: as above; conditions: phytotoxicity rating 0-100 (0 no damage, 100 complete death), 14 days after application
How it was run: as §3

[18] = system: redroot pigweed (Amaranthus retroflexus, AMARE); experiment: as above; conditions: phytotoxicity rating 0-100 (0 no damage, 100 complete death), 14 days after application
How it was run: as §3

[19] = system: sicklepod (Cassia obtusifolia, CASOB); experiment: as above; conditions: phytotoxicity rating 0-100 (0 no damage, 100 complete death), 14 days after application
How it was run: as §3

[20] = system: velvetleaf (Abutilon theophrasti, ABUTH); experiment: as above; conditions: phytotoxicity rating 0-100 (0 no damage, 100 complete death), 14 days after application
How it was run: as §3

[21] = system: field corn (Zea mays L., var. Dekalb 535, CORN); experiment: Post-emerge test, crop safety; conditions: phytotoxicity rating 0-100 (0 no damage, 100 complete death), 14 days after application
How it was run: as §1

[22] = system: upland rice (Oryza sp., var. Tebonnet, RICE); experiment: Post-emerge test, crop safety; conditions: phytotoxicity rating 0-100 (0 no damage, 100 complete death), 14 days after application
How it was run: as §1

COc1c(Cl)cc(F)c(-n2c(=O)cc(C(F)(F)F)n(C)c2=O)c1NC(=O)c1ccc(C)c(C)c1 [2-32]
Pre-emerge Herbicidal Activity, phytotoxicity rating (0-100), AMARE ([1]; 63 g ai/ha): 100
Pre-emerge Herbicidal Activity, phytotoxicity rating (0-100), AMARE ([1]; 250 g ai/ha): 100
Pre-emerge Herbicidal Activity, phytotoxicity rating (0-100), ECHCG ([2]; 63 g ai/ha): 99
Pre-emerge Herbicidal Activity, phytotoxicity rating (0-100), ECHCG ([2]; 250 g ai/ha): 100
Pre-emerge Herbicidal Activity, phytotoxicity rating (0-100), SETVI ([3]; 63 g ai/ha): 100
Pre-emerge Herbicidal Activity, phytotoxicity rating (0-100), SETVI ([3]; 250 g ai/ha): 100
Pre-emerge Herbicidal Activity, phytotoxicity rating (0-100), IPOHE ([4]; 63 g ai/ha): 100
Pre-emerge Herbicidal Activity, phytotoxicity rating (0-100), IPOHE ([4]; 250 g ai/ha): 100
Pre-emerge Herbicidal Activity, phytotoxicity rating (0-100), SORHA ([5]; 63 g ai/ha): 90
Pre-emerge Herbicidal Activity, phytotoxicity rating (0-100), SORHA ([5]; 250 g ai/ha): 100
Pre-emerge Herbicidal Activity, phytotoxicity rating (0-100), CHEAL ([6]; 63 g ai/ha): 100
Pre-emerge Herbicidal Activity, phytotoxicity rating (0-100), CHEAL ([6]; 250 g ai/ha): 100
Pre-emerge Herbicidal Activity, phytotoxicity rating (0-100), DIGSA ([7]; 63 g ai/ha): 100
Pre-emerge Herbicidal Activity, phytotoxicity rating (0-100), DIGSA ([7]; 250 g ai/ha): 100
Pre-emerge Herbicidal Activity, phytotoxicity rating (0-100), CASOB ([8]; 63 g ai/ha): 95
Pre-emerge Herbicidal Activity, phytotoxicity rating (0-100), CASOB ([8]; 250 g ai/ha): 100
Pre-emerge Herbicidal Activity, phytotoxicity rating (0-100), ABUTH ([9]; 63 g ai/ha): 100
Pre-emerge Herbicidal Activity, phytotoxicity rating (0-100), ABUTH ([9]; 250 g ai/ha): 100
Pre-emerge phytotoxicity rating (0-100), crop damage, CORN ([10]; 63 g ai/ha): 40
Pre-emerge phytotoxicity rating (0-100), crop damage, CORN ([10]; 250 g ai/ha): 95
Pre-emerge phytotoxicity rating (0-100), crop damage, RICE ([11]; 63 g ai/ha): 80
Pre-emerge phytotoxicity rating (0-100), crop damage, RICE ([11]; 250 g ai/ha): 99
Post-emerge Herbicidal Activity ECHCG ([12]; 63 g ai/ha): 0
Post-emerge Herbicidal Activity ECHCG ([12]; 250 g ai/ha): 90
Post-emerge Herbicidal Activity SETVI ([13]; 63 g ai/ha): 0
Post-emerge Herbicidal Activity SETVI ([13]; 250 g ai/ha): 90
Post-emerge Herbicidal Activity IPOHE ([14]; 63 g ai/ha): 100
Post-emerge Herbicidal Activity IPOHE ([14]; 250 g ai/ha): 100
Post-emerge Herbicidal Activity SORHA ([15]; 63 g ai/ha): 50
Post-emerge Herbicidal Activity SORHA ([15]; 250 g ai/ha): 95
Post-emerge Herbicidal Activity CHEAL ([16]; 63 g ai/ha): 95
Post-emerge Herbicidal Activity CHEAL ([16]; 250 g ai/ha): 100
Post-emerge Herbicidal Activity DIGSA ([17]; 63 g ai/ha): 0
Post-emerge Herbicidal Activity DIGSA ([17]; 250 g ai/ha): 70
Post-emerge Herbicidal Activity AMARE ([18]; 63 g ai/ha): 100
Post-emerge Herbicidal Activity AMARE ([18]; 250 g ai/ha): 100
Post-emerge Herbicidal Activity CASOB ([19]; 63 g ai/ha): 80
Post-emerge Herbicidal Activity CASOB ([19]; 250 g ai/ha): 100
Post-emerge Herbicidal Activity ABUTH ([20]; 63 g ai/ha): 100
Post-emerge Herbicidal Activity ABUTH ([20]; 250 g ai/ha): 100
Post-emerge Herbicidal Activity CORN (crop damage) ([21]; 63 g ai/ha): 30
Post-emerge Herbicidal Activity CORN (crop damage) ([21]; 250 g ai/ha): 95
Post-emerge Herbicidal Activity RICE (crop damage) ([22]; 63 g ai/ha): 30
Post-emerge Herbicidal Activity RICE (crop damage) ([22]; 250 g ai/ha): 80
